# Test results reported in ChEMBL document CHEMBL1136389, “Structure-activity relationship of a novel class of naphthyl amide KATP channel openers” (Bioorg Med Chem Lett, 2003).
# Legend:
# Rattus norvegicus [1] = test: In vivo concentration required for the reduction of mean arterial pressure in anesthetized obstructed male rat, administered intravenously at a dose of 50 nM/Kg; type: functional, Artery
# Rattus norvegicus [2] = test: In vivo concentration required for the inhibition of unstable contraction in anesthetized obstructed male rat, administered intravenously at a dose of 30 nM/Kg; type: functional
# [3] = Selectivity ratio for the reduction of mean arterial pressure to that of unstable […] in anesthetized obstructed male rat; type: functional, Artery
# Rattus norvegicus [4] = test: In vivo concentration required for the 10% reduction of mean arterial pressure in anesthetized obstructed male rat, administered intravenously at a dose of 50 nM/Kg; type: functional, Artery
Compound,ED10 (Rattus norvegicus [1]) [µM/kg],ED35 (Rattus norvegicus [2]) [µM/kg],Selectivity ratio [3],ED10 (Rattus norvegicus [4]) [µM/kg]
CCc1cc(C#N)ccc1Nc1c(N[C@H](C)C(C)(C)C)c(=O)c1=O,0.12,0.1,1.2,
CC(=O)Nc1c(C(O)(C(F)(F)F)C(F)(F)F)ccc2ccccc12,,0.03,1.7,0.05
C[C@](O)(C(=O)Nc1ccc(C(=O)c2ccccc2)cc1)C(F)(F)F [ZD-6169],1.5,1.4,1.1,
